Test results: US10683296B2, “TLR7 agonist trifluoroacetate salt and crystalline form B thereof, preparation methods and uses” (CHIA TAI TIANQING PHARMACEUTICAL GROUP CO., LTD., priority 2016, dated 2020)

Legend:
[1] = system: human peripheral blood mononuclear cells (PBMC); experiment: Peripheral blood mononuclear cell cytokine stimulating test; type: cell-based; details: for TNF-α MEC / IFN-α MEC: human PBMC, 24 h, CBA flow cytometry; for IFN-α MEC: lowest drug concentration stimulating the production of 30 pg/mL of IFN-α
Protocol: The purpose of this example is to determine the expression level of cytokines 24 h after stimulation to human peripheral blood mononuclear cells (PBMC) with the compound of formula I.
The cell supernatant was assayed without dilution and the levels of IFN-α were directly determined. The compound of formula was firstly formulated into 20 mM DMSO stock solution and was gradient diluted with cell medium in 10-fold with the total number of 11 diluting points. The compounds in 9 diluting points (the highest concentration was 200 μmol/L) were added into 96-well plate with 50 μL in each well. Fresh human peripheral blood mononuclear cells were inoculated, with 150 μL in each well containing 450,000 cells. The cell culture plate was incubated in an incubator at 37° C., 5% CO2 for 24 h. After incubation, the culture plate was centrifuged at 1200 rpm for 5 min and the supernatant was collected and stored at −20° C. for determination. The determination of cytokine was performed using Cytometric Bead Array (CBA) of BD-Pharmingen on flow cytometer. Using the above determining method, the lowest drug concentration stimulating the production of 30 pg/mL of IFN-α was designated as the MEC value in the cytokine stimulating test.

[2] = target: T1, Toll-like receptor 8 (HEK-blue hTLR8 cell) (Homo sapiens, UniProt Q9NR97); experiment: Toll-like receptor 8 in vitro receptor binding activity screen (HEK-blue hTLR8 cell, alkaline phosphatase reporter); type: cell-based; details: versus control GS-9620
T1 construct: host or cells: HEK-blue hTLR8 cell (HEK293-derived reporter line)
T1 sequence (Q9NR97 27-1041): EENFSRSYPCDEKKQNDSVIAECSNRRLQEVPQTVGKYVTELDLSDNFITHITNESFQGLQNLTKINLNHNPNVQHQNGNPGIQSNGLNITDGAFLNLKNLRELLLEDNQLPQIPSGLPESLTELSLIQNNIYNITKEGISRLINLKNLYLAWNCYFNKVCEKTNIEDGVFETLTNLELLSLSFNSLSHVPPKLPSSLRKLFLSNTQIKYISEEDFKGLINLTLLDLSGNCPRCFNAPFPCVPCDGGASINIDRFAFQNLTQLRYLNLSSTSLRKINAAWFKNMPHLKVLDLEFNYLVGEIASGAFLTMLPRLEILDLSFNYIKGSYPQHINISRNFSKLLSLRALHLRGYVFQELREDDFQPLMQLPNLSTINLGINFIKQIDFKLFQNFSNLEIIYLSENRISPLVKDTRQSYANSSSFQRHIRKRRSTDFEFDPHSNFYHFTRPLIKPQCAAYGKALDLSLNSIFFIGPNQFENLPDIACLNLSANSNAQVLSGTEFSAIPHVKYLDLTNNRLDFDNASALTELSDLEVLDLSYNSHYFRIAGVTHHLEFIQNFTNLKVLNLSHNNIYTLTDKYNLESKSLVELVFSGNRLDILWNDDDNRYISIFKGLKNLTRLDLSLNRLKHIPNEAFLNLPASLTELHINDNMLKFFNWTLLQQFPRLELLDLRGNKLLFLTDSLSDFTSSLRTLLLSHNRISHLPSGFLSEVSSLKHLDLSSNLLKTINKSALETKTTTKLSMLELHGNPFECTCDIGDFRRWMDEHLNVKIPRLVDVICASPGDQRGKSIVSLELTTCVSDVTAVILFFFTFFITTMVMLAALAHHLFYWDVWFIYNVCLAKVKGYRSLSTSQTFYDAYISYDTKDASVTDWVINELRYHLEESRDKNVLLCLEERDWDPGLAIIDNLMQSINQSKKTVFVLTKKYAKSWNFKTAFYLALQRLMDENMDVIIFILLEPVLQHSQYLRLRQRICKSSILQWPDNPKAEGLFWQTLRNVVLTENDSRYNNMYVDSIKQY
Protocol: (§1) • HEK-blue hTLR7 cell and HEK-blue hTLR8 cell (available from InvivoGen) • DMEM medium • heat inactivated fetal bovine serum • Anti Mycoplasma reagent Normocin™ • bleomycin • blasticidin
(§2) The structures of GS-9620 and R848 used are as follows, wherein the preparation of GS-9620 could be referred to the process disclosed in US20100143301; R848 was commercially available from ABGENT (IMG-2208, specification: 0.5 mg).
(§3) The compounds were gradient diluted with DMSO in 3-fold using liquid work station POD starting at a concentration of 10 mmol/L and 10 points were diluted (2nd column to 11th column, and each point was duplicated). At 12th column, 1 μL of 5 mg/mL positive compound R848 was added as positive control; and at 1st column, 1 μL of DMSO was added as negative control. Each well contained 1 μL of DMSO. • 2. The cells in culture flask were collected and the cell density was diluted to 250,000 cells/mL. • 3. 200 μL (50,000 cells/well) of cell suspension was added into prepared compound plate and the final concentration of DMSO in each well was 0.5%. • 4. The culture plates containing cells and the compounds were incubated in CO2 incubator for 24 h at 37° C., 5% CO2. • 5. […] After 1 h, the content of alkaline phosphatase in 20 μL of supernatant was determined using Microplate Reader OD650. • 7. […]

[3] = target: T2, Toll-like receptor 7 (HEK-blue hTLR7 cell) (Homo sapiens, UniProt Q9NYK1); experiment: Toll-like receptor 7 in vitro receptor binding activity screen (HEK-blue hTLR7 cell, alkaline phosphatase reporter); type: cell-based; details: versus control GS-9620
T2 construct: host or cells: HEK-blue hTLR7 cell (HEK293-derived reporter line)
T2 sequence (Q9NYK1 27-1049): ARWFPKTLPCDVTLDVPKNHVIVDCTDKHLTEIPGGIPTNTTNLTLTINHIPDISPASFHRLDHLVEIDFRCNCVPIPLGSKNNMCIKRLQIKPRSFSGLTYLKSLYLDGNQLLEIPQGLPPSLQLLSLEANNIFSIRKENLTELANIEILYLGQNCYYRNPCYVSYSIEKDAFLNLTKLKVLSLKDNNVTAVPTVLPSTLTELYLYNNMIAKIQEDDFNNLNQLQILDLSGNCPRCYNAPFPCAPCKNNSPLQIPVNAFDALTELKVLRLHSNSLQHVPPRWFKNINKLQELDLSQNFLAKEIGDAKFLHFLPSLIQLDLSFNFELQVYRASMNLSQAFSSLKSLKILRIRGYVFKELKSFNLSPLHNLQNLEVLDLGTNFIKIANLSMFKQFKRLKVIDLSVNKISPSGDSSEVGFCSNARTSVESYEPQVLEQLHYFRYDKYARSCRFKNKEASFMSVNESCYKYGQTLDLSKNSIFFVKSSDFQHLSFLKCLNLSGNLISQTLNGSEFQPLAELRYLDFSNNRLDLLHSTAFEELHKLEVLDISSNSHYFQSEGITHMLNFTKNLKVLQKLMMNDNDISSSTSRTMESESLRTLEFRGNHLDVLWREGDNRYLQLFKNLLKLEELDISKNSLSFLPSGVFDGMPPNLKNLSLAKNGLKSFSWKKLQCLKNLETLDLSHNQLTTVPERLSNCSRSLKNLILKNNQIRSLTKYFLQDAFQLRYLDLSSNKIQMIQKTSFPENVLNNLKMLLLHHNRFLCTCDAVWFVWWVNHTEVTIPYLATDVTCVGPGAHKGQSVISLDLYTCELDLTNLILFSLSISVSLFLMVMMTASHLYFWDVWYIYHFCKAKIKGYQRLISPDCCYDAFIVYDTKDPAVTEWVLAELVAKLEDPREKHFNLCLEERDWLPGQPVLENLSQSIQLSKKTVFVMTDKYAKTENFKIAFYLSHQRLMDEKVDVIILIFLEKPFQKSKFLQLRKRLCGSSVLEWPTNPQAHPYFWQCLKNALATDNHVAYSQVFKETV
Protocol: as §1, §2, §3

[4] = Stability tests of crystal form B (high temperature, high humidity, light); type: physicochemical; details: general statement; no data of Examples 2-4 printed
Protocol: The crystal form B prepared in Example 1 was tested in the accelerated test under high temperature conditions for stability in accordance with Guidelines for the Stability Test of Pharmaceutical Ingredients and Pharmaceutical Preparations (Chinese Pharmacopoeia 2010 Appendix XIXC).
The crystal form B was placed in an open-clean container at 60° C. The samples were taken for test on day 10, day 20 and day 30, respectively. The results were compared with the initial test result on day 0.
The crystal form B prepared in Example 1 was tested in the accelerated test under high humidity conditions for stability in accordance with Guidelines for the Stability Test of Pharmaceutical Ingredients and Pharmaceutical Preparations (Chinese Pharmacopoeia 2010 Appendix XIXC).
The crystal form B was subjected to an accelerated test in a constant temperature and humidity vessel under the conditions of 40° C./75% humidity (open). The samples were taken for test on day 30, day 60 and day 90, respectively. The results were compared with the initial test result on day 0.
The crystal form B prepared in Example 1 under light conditions was tested for stability in accordance with Guidelines for the Stability Test of Pharmaceutical Ingredients and Pharmaceutical Preparations (Chinese Pharmacopoeia 2010 Appendix XIXC).
The crystal form B was placed in an illumination environment of 5000 Lx±500 Lx. […]

Row | Compound | TNF-α MEC [1] | IFN-α MEC [1] | in vitro receptor binding activity to Toll-like receptor 8 compared with the control GS-9620 [2] | TNF-α inducing activity compared with the control GS-9620 ([1]; versus control GS-9620) | in vitro IFN-α inducing activity of PBMCs compared with the control GS-9620 ([1]; versus control GS-9620) | in vitro receptor binding activity to Toll-like receptor 7 compared with the control GS-9620 [3] | stability of the crystal form [4]
1 | CCCCOc1nc(N)c2c(n1)N(Cc1cccc(CN3CCCC3)c1)CC(=O)N2 [GS-9620, reference compound] | 500 nM | 50 nM |  |  |  |  | 
2 | CCCCOc1nc(N)c2[nH]cc(Cc3ccc(CN4CCCC4)cc3)c2n1 [The compound of formula I, 2-butoxy-7-(4-(pyrrolidin-1-ylmethyl)benzyl)-5H-pyrrolo[3,2-d]pyrimidin-4-amine] | 500 nM | 5 nM | lower | comparable | better | higher | 
3 | CCCCOc1nc(N)c2[nH]cc(Cc3ccc(CN4CCCC4)cc3)c2n1.O=C(O)C(F)(F)F [Crystal Form B of Trifluoroacetate of 2-butoxy-7-(4-(pyrrolidin-1-ylmethyl)benzyl)-5H-pyrrolo[3,2-d]pyrimidin-4-amine] |  |  |  |  |  |  | good stability
